Source: the supplement of paper PMC11451515

Tested on: NOMO1
Experiment: cell viability relative to DMSO control; higher = less cytotoxic
Settings: 48 h
Summary of the method: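 Before seeding, each leukemia line was adapted for at least four passages in each medium. NOMO1 or SEM cells (500 cells/well) and P12-Ichikawa cells (1000 cells/well) went into 1536-well plates at 5 μl, then received library compounds in DMSO by pin dosing across 11 threefold concentrations, 47 μM to 0.79 nM. Readout was CellTiter-Glo One luminescence after 48 h at 37°C, and viability is given as a per-plate percentage of DMSO wells, with cell-free wells as background.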

[1] = HPLM + 10% dialyzed FBS, 0.000781 µM
[2] = HPLM + 10% dialyzed FBS, 0.00234 µM
[3] = HPLM + 10% dialyzed FBS, 0.00702 µM
[4] = HPLM + 10% dialyzed FBS, 0.0211 µM
[5] = HPLM + 10% dialyzed FBS, 0.0632 µM
[6] = HPLM + 10% dialyzed FBS, 0.19 µM
[7] = HPLM + 10% dialyzed FBS, 0.569 µM
[8] = HPLM + 10% dialyzed FBS, 1.71 µM
[9] = HPLM + 10% dialyzed FBS, 5.12 µM
[10] = HPLM + 10% dialyzed FBS, 15.4 µM
[11] = HPLM + 10% dialyzed FBS, 46.1 µM
[12] = RPMI 5 mM glucose + 10% FBS, 0.000781 µM
[13] = RPMI 5 mM glucose + 10% FBS, 0.00234 µM
[14] = RPMI 5 mM glucose + 10% FBS, 0.00702 µM
[15] = RPMI 5 mM glucose + 10% FBS, 0.0211 µM
[16] = RPMI 5 mM glucose + 10% FBS, 0.0632 µM
[17] = RPMI 5 mM glucose + 10% FBS, 0.19 µM
[18] = RPMI 5 mM glucose + 10% FBS, 0.569 µM
[19] = RPMI 5 mM glucose + 10% FBS, 1.71 µM
[20] = RPMI 5 mM glucose + 10% FBS, 5.12 µM
[21] = RPMI 5 mM glucose + 10% FBS, 15.4 µM
[22] = RPMI 5 mM glucose + 10% FBS, 46.1 µM
[23] = RPMI 5 mM glucose + 10% dialyzed FBS, 0.000781 µM
[24] = RPMI 5 mM glucose + 10% dialyzed FBS, 0.00234 µM
[25] = RPMI 5 mM glucose + 10% dialyzed FBS, 0.00702 µM
[26] = RPMI 5 mM glucose + 10% dialyzed FBS, 0.0211 µM
[27] = RPMI 5 mM glucose + 10% dialyzed FBS, 0.0632 µM
[28] = RPMI 5 mM glucose + 10% dialyzed FBS, 0.19 µM
[29] = RPMI 5 mM glucose + 10% dialyzed FBS, 0.569 µM
[30] = RPMI 5 mM glucose + 10% dialyzed FBS, 1.71 µM
[31] = RPMI 5 mM glucose + 10% dialyzed FBS, 5.12 µM
[32] = RPMI 5 mM glucose + 10% dialyzed FBS, 15.4 µM
[33] = RPMI 5 mM glucose + 10% dialyzed FBS, 46.1 µM

Structure (SMILES)	cell viability [1] [%]	cell viability [2] [%]	cell viability [3] [%]	cell viability [4] [%]	cell viability [5] [%]	cell viability [6] [%]	cell viability [7] [%]	cell viability [8] [%]	cell viability [9] [%]	cell viability [10] [%]	cell viability [11] [%]	cell viability [12] [%]	cell viability [13] [%]	cell viability [14] [%]	cell viability [15] [%]	cell viability [16] [%]	cell viability [17] [%]	cell viability [18] [%]	cell viability [19] [%]	cell viability [20] [%]	cell viability [21] [%]	cell viability [22] [%]	cell viability [23] [%]	cell viability [24] [%]	cell viability [25] [%]	cell viability [26] [%]	cell viability [27] [%]	cell viability [28] [%]	cell viability [29] [%]	cell viability [30] [%]	cell viability [31] [%]	cell viability [32] [%]	cell viability [33] [%]
CN(C)/[N+]([O-])=N/Oc1cc(ON[N+](=O)N2CCN(C(=O)c3cc(Cc4n[nH]c(=O)c5ccccc45)ccc3F)CC2)c([N+](=O)[O-])cc1[N+](=O)[O-]	101	94.9	100	100	115	119	109	104	102	126	117	99.1	97.4	103	114	99.4	102	113	122	119	101	106	93.9	112	101	107	118	114	103	109	123	115	120
O=C(NCCCNc1nc(Nc2cccc(NC(=O)N3CCCC3)c2)ncc1I)c1cccs1	81.8	91	88.4	79.3	80.9	72	91.5	51.5	67.9	84.3	78.7	80.4	89.7	78	81.5	76.1	76.9	80	65.9	77	83.1	89.9	89.1	89.2	89.3	75	84.6	84.4	80	59.1	83.1	75.7	76.9
O=P1(N(CCCl)CCCl)NCCCO1 (stereo not drawn)	134	106	108	115	101	112	122	120	97.6	91	75.7	108	98.4	110	99.7	102	103	97.8	87.3	91.4	50.5	47.5	85.1	110	99.7	119	119	112	103	110	84.9	54	50.7
C[N]1N=CC2=C1C=C(C(=C2)OC3=CC=C(NC(=O)\C4=C\C=C(\C)N(C4=O)C5=CC=C(F)C=C5)C=C3F)C6=C[NH]N=C6	107	131	117	126	133	141	132	125	86.1	25.3	15.6	113	112	111	121	127	107	116	118	104	16.4	11.9	121	117	118	108	122	125	124	115	100	30	16.2
CCC[C@@H](C=O)NC(=O)[C@H](CC(C)C)NC(=O)[C@H](CC(C)C)NC(=O)OCc1ccccc1	113	121	121	138	138	139	138	75.4	19.2	7.83	5.86	101	110	119	135	126	127	127	35.3	13.9	8.52	7.79	115	130	124	131	143	143	132	93.1	32.4	9.45	7.3
CC[C@H](NC(C)C)[C@H](O)c1ccc(O)c2[nH]c(=O)ccc12	113	103	108	97.6	108	113	124	107	108	96.8	104	91.2	95.8	88.7	95.7	84.6	107	101	94.5	97	84.1	90.6	84.7	109	104	94.4	102	107	96.9	95.3	94.6	87	91.2
CCc1ccc(C(=O)Nc2cc(CN3CCN(C)CC3)cc(C(F)(F)F)c2)cc1C#Cc1cnc2ccnn2c1	117	113	123	118	109	129	134	142	104	103	101	99.5	112	113	114	120	110	119	116	119	128	102	115	119	107	112	120	114	125	119	120	107	113
CCCc1nc2c(C)cc(-c3nc4ccccc4n3C)cc2n1Cc1ccc(-c2ccccc2C(=O)O)cc1	117	102	112	110	139	140	136	138	127	134	134	123	123	139	126	150	144	131	143	150	145	132											
